Measured values published in PubChem BioAssay (NCI).
Several values for one entry are separate records, joined by “and”; a condition that tells them apart may be missing. Identical values can stand only once.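 Dose response: 5 concentrations. Exposure: 48 h. Format: 96-well plates. Endpoint: linear interpolation; highest concentration if not reached. The concentration for 50% growth inhibition is given as GI50. At the TGI there is no net growth.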

Tests used:
Assay in all cases: DTP human tumour cell line panel, 48 h
ACHN renal = system: ACHN renal
MALME-3M melanoma = system: MALME-3M melanoma
K-562 leukemia = system: K-562 leukemia
NCI-H23 lung = system: NCI-H23 lung
SF-295 CNS = system: SF-295 CNS
786-0 renal = system: 786-0 renal
RXF 393 renal = system: RXF 393 renal
LOX IMVI melanoma = system: LOX IMVI melanoma
HOP-92 NSCLC = system: HOP-92 NSCLC
OVCAR-5 ovarian = system: OVCAR-5 ovarian

Structure (SMILES) | GI50 (ACHN renal) [nM] | TGI (ACHN renal) | GI50 (MALME-3M melanoma) [µM] | TGI (MALME-3M melanoma) | GI50 (K-562 leukemia) [µM] | TGI (K-562 leukemia) | GI50 (NCI-H23 lung) [nM] | TGI (NCI-H23 lung) | GI50 (SF-295 CNS) [nM] | TGI (SF-295 CNS) | GI50 (786-0 renal) [nM] | TGI (786-0 renal) | GI50 (RXF 393 renal) [µM] | TGI (RXF 393 renal) | GI50 (LOX IMVI melanoma) [nM] | TGI (LOX IMVI melanoma) [µM] | GI50 (HOP-92 NSCLC) [nM] | TGI (HOP-92 NSCLC) | GI50 (OVCAR-5 ovarian) [nM] | TGI (OVCAR-5 ovarian)
CCN(CCc1ccc(F)cc1)c1ccc(CO)c(Cl)c1 | 9590 | 22.5 µM | 16 | 31.1 µM | 4.21 | 25.7 µM | 12200 | 31 µM | 3440 | 17.6 µM | 12200 | 27 µM | 4.72 | 19.9 µM | 12100 | 25.6 | 1940 | 13.5 µM | 505 | 2.28 µM
O=C(O)c1cc2c3c(c1)[C@H]1C=CC[C@H]1CN3CC1CC=CC21 (stereo partly drawn) | – | > 100 µM | – | > 100 µM | – | > 100 µM | – | > 100 µM | – | > 100 µM | – | > 100 µM | – | > 100 µM | – | > 100 | – | > 100 µM | – | > 100 µM
CCCCn1c(=O)c(/C=C/C(=O)/C=C/c2ccc(O)c(OC)c2)cc2ccc(Cl)cc21 | 1600 | 2.95 µM | 2.14 | 4.92 µM | 2.82 | 12.8 µM | 2060 | 4.98 µM | 2750 | 10.3 µM | 1770 | 3.31 µM | 1.66 | 3.25 µM | 1510 | 2.84 | 1750 | 4.19 µM | 2570 | 4.89 µM
CCc1nc2cc(/C=C/C(=O)NO)c(F)cc2c(=O)n1CCc1ccccc1 | 744 | 2.9 µM | 0.944 | 10.4 µM | 1.65 | > 100 µM | 1170 | 4.32 µM | 1890 | 4.35 µM | 1700 | 4.49 µM | 0.99 | 3.56 µM | 488 | 1.97 | 2510 | 8.94 µM | 1610 | 12.6 µM
COc1cc2c3c(n(CCCn4cccn4)c(=O)c2cc1OC)-c1cc2c(cc1C3=O)OCO2 | 396 | 5.61 µM | 9.4 | > 96.7 µM | 3.51 | > 100 µM | 807 | 4.38 µM | 581 | 32 µM | 429 | 2.76 µM | 5.76 | 27.7 µM | 728 | 11.1 | 1340 | 18.6 µM | 14000 | 64.4 µM
COc1cc2c(cc1OCCN1C(=O)c3cccc4cccc(c34)C1=O)N=C[C@@H]1CCCN1C2=O | 19000 | 14.9 µM and 33 µM | 11.7 | 15.7 µM and 24.5 µM | 7.63 | 10.9 µM and > 100 µM | 16800 | 20.2 µM and 32.3 µM | 32000 | 50 µM and > 100 µM | 16500 | 14.7 µM and 33.9 µM | 20.9 | 15 µM and 36.3 µM | – | 12.3 | 19500 | 17.3 µM and 55.4 µM | 23900 | 18.1 µM and 49.9 µM
COC(=O)c1c(C(=O)OC)c(C(=O)OC)c(C(=O)OC)c1C(=O)OC | – | > 100 µM | – | > 100 µM | – | > 100 µM | – | > 100 µM | – | > 100 µM | – | > 100 µM | – | > 100 µM | – | > 100 | – | > 100 µM | – | > 100 µM
CN([N-]C(=O)CC(=O)[N-]N(C)C(=S)c1ccccc1)C(=S)c1ccccc1.[Cu+2] | 82.5 | 0.22 µM | 0.0194 | 0.0585 µM | < 0.01 | – | 24.1 | 0.141 µM | 63.5 | 0.225 µM | 50.3 | 0.116 µM | 0.0266 | 0.0729 µM | < 12.9 | 0.0683 | 33.3 | 0.098 µM | 44.5 | 0.175 µM
